Data: publication PMC2705655, “The Nicotinic Acetylcholine Receptors of the Parasitic Nematode Ascaris suum: Formation of Two Distinct Drug Targets by Varying the Relative Expression Levels of Two Subunits” (PLoS Pathogens, 2009)

What was measured:
Assay in all cases: two-electrode voltage clamp, Xenopus oocytes
Format in all cases: cell-based
[1] = target: T1, 5:1 Asu-unc-38:Asu-unc-29 receptor, putative (Asu-UNC-38)3(Asu-UNC-29)2, N-subtype nAChR (Ascaris suum, UniProt A7UFK6+A9XWS2)
T1 construct: full-length cDNAs of both subunits in pT7TS, cRNAs co-injected 5:1 into Xenopus oocytes; no tag
T1 sequence (A7UFK6 22-513): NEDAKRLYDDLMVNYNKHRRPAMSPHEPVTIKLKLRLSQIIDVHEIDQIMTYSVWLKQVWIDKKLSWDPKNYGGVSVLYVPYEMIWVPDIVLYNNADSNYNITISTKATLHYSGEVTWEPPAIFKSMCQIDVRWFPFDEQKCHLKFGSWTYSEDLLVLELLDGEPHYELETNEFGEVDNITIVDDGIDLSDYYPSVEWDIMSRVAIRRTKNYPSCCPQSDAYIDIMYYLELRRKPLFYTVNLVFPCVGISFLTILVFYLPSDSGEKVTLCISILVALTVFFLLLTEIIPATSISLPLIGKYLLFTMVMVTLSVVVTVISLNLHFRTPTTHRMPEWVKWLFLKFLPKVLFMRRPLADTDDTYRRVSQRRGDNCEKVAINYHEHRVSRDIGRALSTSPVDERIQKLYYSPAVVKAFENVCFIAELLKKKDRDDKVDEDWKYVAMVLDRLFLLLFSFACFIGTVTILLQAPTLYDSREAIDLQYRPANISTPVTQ
T1 sequence (A9XWS2 27-513): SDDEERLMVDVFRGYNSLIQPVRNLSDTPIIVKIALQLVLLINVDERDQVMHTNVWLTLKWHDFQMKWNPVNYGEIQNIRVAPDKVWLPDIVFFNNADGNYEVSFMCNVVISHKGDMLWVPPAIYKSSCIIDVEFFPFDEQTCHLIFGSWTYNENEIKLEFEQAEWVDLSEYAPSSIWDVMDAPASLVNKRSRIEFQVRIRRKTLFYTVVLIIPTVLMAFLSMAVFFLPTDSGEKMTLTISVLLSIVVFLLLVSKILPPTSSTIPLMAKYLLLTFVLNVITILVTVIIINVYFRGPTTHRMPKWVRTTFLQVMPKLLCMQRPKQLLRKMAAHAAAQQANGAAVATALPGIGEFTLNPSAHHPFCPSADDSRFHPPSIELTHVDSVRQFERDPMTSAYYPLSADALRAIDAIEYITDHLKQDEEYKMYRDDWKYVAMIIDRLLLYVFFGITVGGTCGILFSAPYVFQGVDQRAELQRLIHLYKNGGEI
Source text: two-electrode voltage clamp, Xenopus oocytes on 5:1 Asu-unc-38:Asu-unc-29 receptor, putative (Asu-UNC-38)3(Asu-UNC-29)2, N-subtype nAChR

[2] = target: T2, 1:5 Asu-unc-38:Asu-unc-29 receptor, putative (Asu-UNC-38)2(Asu-UNC-29)3, L-subtype nAChR (Ascaris suum, UniProt A7UFK6+A9XWS2); settings: -60 mV; cRNA ratio 1:5; response too small to quantify
T2 construct: full-length cDNAs of both subunits in pT7TS, cRNAs co-injected 1:5 into Xenopus oocytes; no tag
T2 sequence (A7UFK6 22-513): T1 sequence (A7UFK6 22-513)
T2 sequence (A9XWS2 27-513): T1 sequence (A9XWS2 27-513)

[3] = target: T2, 1:5 Asu-unc-38:Asu-unc-29 receptor, putative (Asu-UNC-38)2(Asu-UNC-29)3, L-subtype nAChR
Source text: two-electrode voltage clamp, Xenopus oocytes on 1:5 Asu-unc-38:Asu-unc-29 receptor, putative (Asu-UNC-38)2(Asu-UNC-29)3, L-subtype nAChR

[4] = target: T1, 5:1 Asu-unc-38:Asu-unc-29 receptor, putative (Asu-UNC-38)3(Asu-UNC-29)2, N-subtype nAChR; settings: -60 mV; cRNA ratio 5:1; response too small to quantify

Structure (SMILES)	EC50 [1] [nM]	two-electrode voltage clamp, Xenopus oocytes [2]	EC50 [3] [nM]	two-electrode voltage clamp, Xenopus oocytes [4]
CN1CCCN=C1/C=C/c1cccc(O)c1 [oxantel]	4070	but gave a negligible response to oxantel	–	–
CN1CCCN=C1/C=C/c1cccs1 [pyrantel]	–	–	398	but gave very little response to pyrantel
